Values after ≈ are worked out from the molar mass of the structure shown. Counter-ions that a name gives are not always drawn. Like-named read-outs stand apart in the source and are kept apart here.
How the values were obtained:
[1] = tested on: H37RvMA; assay: Tuberculosis Alamar Blue/Resazurin assay (MIC); type: cell-based; settings: Mycobacterium tuberculosis, H37RV, read-out: WT H37Rv MTB Activity
[2] = tested on: E. coli; assay: Gram negative MIC protocol (OD600, LB, 24 h); settings: Escherichia coli
Method: (§1) Overnight bacterial cultures were grown in LB with no added antibiotics at 37° C. with shaking. A 1:1000 dilution of these cultures into LB was exposed to concentration gradients of compounds in 96-well plates (100 μL per well assay volume). Resulting plates were incubated at 37° C. for 24 h without shaking, and OD600 was measured at the end of the incubation. MICs were determined as the lowest concentrations at which OD600 remained at baseline.

[3] = tested on: A. baumannii; assay: Gram negative MIC protocol (OD600, LB, 24 h); settings: Acinetobacter baumannii
Method: as §1

[4] = read-out: MIC E. coli delta-TolC LB Media, E. coli delta-TolC, LB media, OD600
[5] = read-out: MIC WT E. coli LB Media, WT E. coli, LB media, OD600
[6] = read-out: MIC A. baumannii LB Media, A. baumannii, LB media, 24 h, OD600

Compound	MIC ([1]; WT H37Rv MTB) [µM]	MIC [2, 4] [µM]	MIC [2, 5] [µM]	MIC [3, 6] [µM]	MIC [1] [µM]	MIC ([3]; read-out: MIC A. baumannii LB Media) [µM]
O=C1NCC(COc2ccccc2CNCCC2=CCCCC2)O1 (stereo not shown) [B402]	> 150	33 (≈ 10.9 µg/mL)	150 (≈ 49.6 µg/mL)	> 150	–	–
CC(CC1CCCCC1)NCc1ccccc1OCC1CNC(=O)C1 (stereo not shown) [B403]	> 150	7 (≈ 2.41 µg/mL)	> 150	> 150	–	–
CC(CC1CCCCC1)NCc1ccccc1OC1C2CC3CC(C2)CC1C3 [B404, N-(2-(((1R,3S,5r,7r)-adamantan-2-yl)oxy)benzyl)-1-cyclohexylpropan-2-amine]	20.2 (≈ 7.71 µg/mL)	7 (≈ 2.67 µg/mL)	> 150	150 (≈ 57.2 µg/mL)	–	–
CC(CC1CCCCC1)NCc1ccccc1Oc1ccccc1F (stereo not shown) [B405, 1-cyclohexyl-N-(2-(2-fluorophenoxy)benzyl)propan-2-amine]	33.4 (≈ 11.4 µg/mL)	5 (≈ 1.71 µg/mL)	91 (≈ 31.1 µg/mL)	150 (≈ 51.2 µg/mL)	–	–
CNc1cccc(CNCCC2CCCCC2)c1 [B406, 3-(((2-cyclohexylethyl)amino)methyl)-N-methylaniline]	150 (≈ 37 µg/mL)	> 150	> 150	> 150	–	–
CC(CC1CCCCC1)NCc1ccccc1SCC1CN(C)C(=O)O1 (stereo not shown) [B407, 5-(((2-(((1-cyclohexylpropan-2-yl)amino)methyl)phenyl)thio)methyl)-3-methyl oxazolidin-2-one]	> 150	7 (≈ 2.64 µg/mL)	150 (≈ 56.5 µg/mL)	> 150	–	–
CC(CC1CCCCC1)NCc1ccccc1OCc1ccc(F)cc1 (stereo not shown) [B408, 1-cyclohexyl-N-(2-((4-fluorobenzyl)oxy)benzyl)propan-2-amine]	12.2 (≈ 4.34 µg/mL)	2 (≈ 0.711 µg/mL)	55 (≈ 19.6 µg/mL)	55 (≈ 19.6 µg/mL)	–	–
CC(CC1CCCCC1)NCc1ccccc1OCc1ccccc1 (stereo not shown) [B409, N-(2-(benzyloxy)benzyl)-1-cyclohexylpropan-2-amine]	12.2 (≈ 4.12 µg/mL)	3 (≈ 1.01 µg/mL)	55 (≈ 18.6 µg/mL)	55 (≈ 18.6 µg/mL)	–	–
O=C1Cc2ccccc2CN1CCC1CCSCC1 [B410, 2-(2-(tetrahydro-2H-thiopyran-4-yl)ethyl)-1,4-dihydroisoquinolin-3(2H)-one]	> 150	> 150	> 150	> 150	–	–
O=C1Cc2ccccc2CN1CCC1=CCCCC1 [B411, 2-(2-(cyclohex-1-en-1-yl)ethyl)-1,4-dihydroisoquinolin-3(2H)-one]	7.4 (≈ 1.89 µg/mL)	150 (≈ 38.3 µg/mL)	> 150	> 150	–	–
CC(CC1CCCCC1)N1Cc2ccccc2CC1=O (stereo not shown) [B412, 2-(1-cyclohexylpropan-2-yl)-1,4-dihydroisoquinolin-3(2H)-one]	7.4 (≈ 2.01 µg/mL)	55 (≈ 14.9 µg/mL)	> 150	> 150	–	–
CC(CN1Cc2ccccc2CC1=O)C1CCCCC1 (stereo not shown) [B413, 2-(2-cyclohexylpropyl)-1,4-dihydroisoquinolin-3(2H)-one]	7.4 (≈ 2.01 µg/mL)	55 (≈ 14.9 µg/mL)	> 150	> 150	–	–
CC(CC1CCCCC1)NCc1ccccc1CS(N)(=O)=O (stereo not shown) [B414, (2-(((1-cyclohexylpropan-2-yl)amino)methyl)phenyl)methanesulfonamide]	> 150	4 (≈ 1.3 µg/mL)	20 (≈ 6.49 µg/mL)	150 (≈ 48.7 µg/mL)	–	–
CC1CCCCC1CCN1Cc2ccccc2CC1=O (stereo not shown) [B415, 2-(2-(2-methylcyclohexyl)ethyl)-1,4-dihydroisoquinolin-3(2H)-one]	1.26 (≈ 0.341 µg/mL)	55 (≈ 14.9 µg/mL)	> 150	> 150	–	–
O=C1Cc2ccccc2CN1CCCC1CCCCC1 [B416, 2-(3-cyclohexylpropyl)-1,4-dihydroisoquinolin-3(2H)-one]	2.5 (≈ 0.679 µg/mL)	55 (≈ 14.9 µg/mL)	> 150	> 150	–	–
c1ccc2c(c1)CCN(CCC1CCCCC1)C2 [B417, 2-(2-cyclohexylethyl)-1,2,3,4-tetrahydroisoquinoline]	–	> 150	> 150	–	> 150	> 150
O=C1Cc2ccccc2CN1C1CCCCC1 [B418, 2-cyclohexyl-1,4-dihydroisoquinolin-3(2H)-one]	> 150	> 150	> 150	> 150	–	–
O=C1c2ccccc2CN1CCC1CCCCC1 [B419, 2-(2-cyclohexylethyl)isoindolin-1-one]	0.6 (≈ 0.146 µg/mL)	150 (≈ 36.5 µg/mL)	> 150	> 150	–	–
CNCc1cccc(CNCCC2CCCCC2)c1 [B420, 2-cyclohexyl-N-(3-((methylamino)methyl)benzyl)ethan-1-amine]	> 150	> 150	> 150	> 150	–	–

Compound	MIC ([1]; WT H37Rv MTB) [µM]	MIC [2, 4] [µM]	MIC [2, 5] [µM]	MIC [3, 6] [µM]	MIC [1] [µM]	MIC ([3]; read-out: MIC A. baumannii LB Media) [µM]
O=C1Cc2ccccc2CN1CCc1ccccc1 [B421, 2-phenethyl-1,4-dihydroisoquinolin-3(2H)-one]	55.1 (≈ 13.8 µg/mL)	> 150	> 150	> 150	–	–
O=C1Cc2ccccc2CN1CCC1CCCCCC1 [B422, 2-(2-cycloheptylethyl)-1,4-dihydroisoquinolin-3(2H)-one]	2.5 (≈ 0.679 µg/mL)	150 (≈ 40.7 µg/mL)	> 150	> 150	–	–
CC(CC1CCCCC1)NCc1cccc2ccn(Cc3ccccc3)c12 (stereo not shown) [B423, N-((1-benzyl-1H-indol-7-yl)methyl)-1-cyclohexylpropan-2-amine]	150 (≈ 54.1 µg/mL)	55 (≈ 19.8 µg/mL)	> 150	> 150	–	–
CC(CC1CCCCC1)NCc1ccccc1CS(C)(=O)=O (stereo not shown) [B424, 1-cyclohexyl-N-(2-((methylsulfonyl)methyl)benzyl)propan-2-amine]	> 150	3 (≈ 0.971 µg/mL)	33 (≈ 10.7 µg/mL)	150 (≈ 48.5 µg/mL)	–	–
O=C1CCc2ccccc2CN1CCC1CCCCC1 [B425, 2-(2-cyclohexylethyl)-1,2,4,5-tetrahydro-3H-benzo[c]azepin-3-one]	> 150	33 (≈ 8.96 µg/mL)	> 150	> 150	–	–
CC(CC1CCCCC1)N1Cc2ccccc2OC1=O (stereo not shown) [B426, 3-(1-cyclohexylpropan-2-yl)-3,4-dihydro-2H-benzo[e][1,3]oxazin-2-one]	1.7 (≈ 0.465 µg/mL)	55 (≈ 15 µg/mL)	> 150	> 150	–	–
O=C1Cc2ccccc2CN1CCC1CCCC1 [B427, 2-(2-cyclopentylethyl)-1,4-dihydroisoquinolin-3(2H)-one]	2.7 (≈ 0.657 µg/mL)	> 150	> 150	> 150	–	–
CC(C)C[C@H](N)C(=O)NS(=O)(=O)Cc1ccccc1CNC(C)CC1CCCCC1 (stereo partly drawn) [B428, (2S)-2-amino-N-((2-(((1-cyclohexylpropan-2-yl)amino)methyl)benzyl)sulfonyl)-4-methylpentanamide dihydrochloride]	> 150	55	> 150	> 150	–	–
CC(CC1CCCCC1)NCc1ccccc1OCCc1ccccc1F (stereo not shown) [B429, 1-cyclohexyl-N-(2-(2-fluorophenethoxy)benzyl)propan-2-amine]	20.2 (≈ 7.46 µg/mL)	2 (≈ 0.739 µg/mL)	55 (≈ 20.3 µg/mL)	33 (≈ 12.2 µg/mL)	–	–
O=C1Cc2ccccc2CN1CCC1CCOCC1 [B430, 2-(2-(tetrahydro-2H-pyran-4-yl)ethyl)-1,4-dihydroisoquinolin-3(2H)-one]	55.1 (≈ 14.3 µg/mL)	> 150	> 150	> 150	–	–
CC(CC1CCCCC1)NCc1ccccc1CS(=O)(=O)NCC(O)CO (stereo not shown) [B431, 1-(2-(((1-cyclohexylpropan-2-yl)amino)methyl)phenyl)-N-(2,3-dihydroxypropyl) methanesulfonamide]	> 150	4 (≈ 1.59 µg/mL)	150 (≈ 59.8 µg/mL)	> 150	–	–
CC(CC1CCCCC1)NCc1ccccc1CS(=O)(=O)NC1CCN(C)CC1 (stereo not shown) [B432, 1-(2-(((1-cyclohexylpropan-2-yl)amino)methyl)phenyl)-N-(1-methylpiperidin-4-yl)methanesulfonamide]	> 150	33 (≈ 13.9 µg/mL)	150 (≈ 63.2 µg/mL)	> 150	–	–
CC(CC1CCCCC1)NCc1ccccc1CS(=O)(=O)NCC1CCCO1 (stereo not shown) [B433, 1-(2-(((1-cyclohexylpropan-2-yl)amino)methyl)phenyl)-N-((tetrahydrofuran-2-yl)methyl)methanesulfonamide]	> 150	3 (≈ 1.23 µg/mL)	150 (≈ 61.3 µg/mL)	150 (≈ 61.3 µg/mL)	–	–
COCCNS(=O)(=O)Cc1ccccc1CNC(C)CC1CCCCC1 (stereo not shown) [B434, 1-(2-(((1-cyclohexylpropan-2-yl)amino)methyl)phenyl)-N-(2-methoxyethyl) methanesulfonamide]	> 150	4 (≈ 1.53 µg/mL)	150 (≈ 57.4 µg/mL)	150 (≈ 57.4 µg/mL)	–	–
COC(=O)Cn1ccc2cccc(CNC(C)CC3CCCCC3)c21 (stereo not shown) [B435, methyl 2-(7-(((1-cyclohexylpropan-2-yl)amino)methyl)-1H-indol-1-yl)acetate hydrochloride]	> 150	150	> 150	> 150	–	–
CC(CC1CCCCC1)NCc1cccc2ccn(CC(=O)O)c12 (stereo not shown) [B436, 2-(7-(((1-cyclohexylpropan-2-yl)amino)methyl)-1H-indol-1-yl)acetic acid hydrochloride]	> 150	91	> 150	> 150	–	–
CC(CC1CCCCC1)NCc1ccccc1CS(=O)(=O)N(C)C (stereo not shown) [B437, 1-(2-(((1-cyclohexylpropan-2-yl)amino)methyl)phenyl)-N,N-dimethylmethane sulfonamide]	> 150	4 (≈ 1.41 µg/mL)	150 (≈ 52.9 µg/mL)	> 150	–	–
CC(CC1CCCCC1)NCc1ccccc1CS(=O)(=O)N(C)C[C@H](O)CO (stereo partly drawn) [B438, 1-(2-(((1-cyclohexylpropan-2-yl)amino)methyl)phenyl)-N-((S)-2,3-dihydroxypropyl)-N-methylmethanesulfonamide]	> 150	7 (≈ 2.89 µg/mL)	150 (≈ 61.9 µg/mL)	> 150	–	–
